Experimental data reported in patent US7863332B2, “Biaromatic compound activators of PPARγ receptors and cosmetic/pharmaceutical compositions comprised thereof” (Galderma Research & Development, priority 2004, dated 2011).

Key:
PPARδ = biological target: T1, PPARδ (Homo sapiens, UniProt Q03181); test: Cross-curve PPAR transactivation test (PPARδ); format: cell-based; details: HeLN cells, Gal-hPPARδ, luciferase reporter; cross curves against reference agonist, Schild regression; n.a means not active; read-out: PPARs delta Kd app
T1 sequence (Q03181 171-441 limits assumed): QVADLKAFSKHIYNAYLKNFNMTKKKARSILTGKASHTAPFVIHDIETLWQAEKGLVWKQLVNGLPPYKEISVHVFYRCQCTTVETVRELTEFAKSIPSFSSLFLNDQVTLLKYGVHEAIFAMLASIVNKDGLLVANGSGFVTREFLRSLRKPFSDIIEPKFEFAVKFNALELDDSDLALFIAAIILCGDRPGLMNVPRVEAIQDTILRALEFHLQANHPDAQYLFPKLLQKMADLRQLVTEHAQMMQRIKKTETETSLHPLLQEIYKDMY
Method: (§1) The activation of PPAR receptors with an agonist (activator) in HeLN cells leads to the expression of a reporter gene, luciferase, which, in the presence of a substrate, generates light. The modulation of the PPAR receptors is measured by quantifying the luminescence produced after incubating the cells in the presence of a reference agonist. The ligands displace the agonist from its site. The measurement of the activity is performed by quantifying the light produced. This measurement makes it possible to determine the modulatory activity of the compounds according to the invention by determining the constant that is the affinity of the molecule for the PPAR receptor. Since this value can fluctuate depending on the basal activity and the expression of the receptor, it is referred to as Kd apparent (KdApp in nM).
(§2) To determine this constant, “cross curves” of the test product against a reference agonist are produced in a 96-well plate: 10 concentrations of the test product plus a concentration 0 are arranged in a line, and 7 concentrations of the agonist plus a concentration 0 are arranged in a column. This is 88 measurement points for 1 product and 1 receptor. The remaining 8 wells are used for repeatability controls.
(§3) Measurements are also taken for total agonist controls with the same products.
(§4) The HeLN cell lines used are stable transfectants containing the plasmids ERE-βGlob-Luc-SV-Neo (reporter gene) and PPAR (α, δ, γ) Gal-hPPAR. These cells are inoculated into 96-well plates at a rate of 10 000 cells per well in 100 μl of DMEM medium without phenol red and supplemented with 10% of defatted calf serum. The plates are then incubated at 37° C. and 7% CO2 for 16 hours.
(§5) The various dilutions of the test products and of the reference ligand are added at a rate of 5 μl per well. The plates are then incubated for 18 hours at 37° C. and 7% CO2. The culture medium is removed by turning over and 100 μl of a 1:1 PBS/luciferin mixture are added to each well. After 5 minutes, the plates are read by the luminescence detector.

PPARγ = biological target: T2, PPARγ (Homo sapiens, UniProt P37231); test: Cross-curve PPAR transactivation test (PPARγ); format: cell-based; details: HeLN cells, Gal-hPPARγ, luciferase reporter; cross curves against reference agonist, Schild regression; n.a means not active; read-out: PPAR gamma Kd app
T2 sequence (P37231 238-505 limits assumed): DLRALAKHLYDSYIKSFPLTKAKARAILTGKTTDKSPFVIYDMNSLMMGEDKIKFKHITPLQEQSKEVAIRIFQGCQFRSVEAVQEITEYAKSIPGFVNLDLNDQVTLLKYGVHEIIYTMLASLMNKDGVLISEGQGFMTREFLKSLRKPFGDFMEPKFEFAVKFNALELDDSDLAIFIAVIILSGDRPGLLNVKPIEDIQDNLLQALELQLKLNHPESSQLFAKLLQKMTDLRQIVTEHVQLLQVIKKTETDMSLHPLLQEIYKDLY
Method: as §1, §2, §3, §4, §5

PPARα = biological target: T3, PPARα (Homo sapiens, UniProt Q07869); test: Cross-curve PPAR transactivation test (PPARα); format: cell-based; details: HeLN cells, Gal-hPPARα, luciferase reporter; cross curves against reference agonist, Schild regression; n.a means not active; read-out: PPAR alpha Kd app
T3 sequence (Q07869 202-468 limits assumed): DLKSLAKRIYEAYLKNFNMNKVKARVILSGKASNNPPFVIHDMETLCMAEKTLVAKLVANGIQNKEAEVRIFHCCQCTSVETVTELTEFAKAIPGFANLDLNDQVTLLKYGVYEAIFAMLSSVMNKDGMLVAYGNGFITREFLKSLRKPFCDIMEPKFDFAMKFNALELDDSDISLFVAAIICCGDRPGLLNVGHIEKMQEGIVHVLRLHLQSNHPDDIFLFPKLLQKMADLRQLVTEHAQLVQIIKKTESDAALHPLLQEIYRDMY
Method: as §1, §2, §3, §4, §5

Kd (PPARδ) [µM] | Kd (PPARγ) [µM] | melting point [°C] | Kd (PPARα) [µM] | Compound
0.5 | 0.002 | 101 |  | CCCCCCCNC(=O)N(C)c1cccc(-c2ccc(CCC(=O)O)cc2)c1 [Example 2, 3-[3′-(3-heptyl-1-methylureido)biphenyl-4-yl]propanoic acid]
2 | 0.004 |  | 2 | CCCCCCCNC(=O)N(C)c1cccc(-c2ccc(CCC(=O)O)c(F)c2)c1 [Example 3, 3-[3-fluoro-3′-(3-heptyl-1-methylureido)biphenyl-4-yl]propanoic acid]
 |  | 100 to 101 |  | CCCCCCCNC(=O)N(C)c1cccc(-c2ccc(CCC(=O)NO)cc2)c1 [Example 6, 3-[3′-(3-heptyl-1-methylureido)biphenyl-4-yl]-N-hydroxypropionamide]
 |  | 170 to 171 |  | CN(C(=O)Nc1ccc2ccccc2c1)c1cccc(-c2ccc(CCC(=O)O)cc2)c1 [Example 7, 3-[3′-(1-methyl-3-naphthalen-2-ylureido)biphenyl-4-yl]propanoic acid]
 |  | 95 to 96 |  | CCCCCCCNC(=S)N(C)c1cccc(-c2ccc(CCC(=O)O)cc2)c1 [Example 8, 3-[3′-(3-heptyl-1-methylthioureido)biphenyl-4-yl]propanoic acid]
 |  | 130 to 131 |  | CCCCCCCNC(=O)N(C)c1cccc(-c2ccc(/C=C/C(=O)O)cc2F)c1 [Example 9, (E)-3-[2-fluoro-3′-(3-heptyl-1-methylureido)biphenyl-4-yl]acrylic acid]
 |  | 80 to 82 |  | CCCCCCCNC(=O)N(C)c1cccc(-c2ccc(CCC(=O)O)cc2F)c1 [Example 10, 3-[2-fluoro-3′-(3-heptyl-1-methylureido)biphenyl-4-yl]propanoic acid]
 |  | 119 to 120 |  | CCCCCCNC(=O)N(C)c1cccc(-c2ccc(CCC(=O)O)cc2)c1 [Example 11, 3-[3′-(3-hexyl-1-methylureido)biphenyl-4-yl]propanoic acid]
2 | 0.002 | 173.5 to 175 |  | CN(C(=O)Nc1ccc(OCc2ccccc2)cc1)c1cccc(-c2ccc(CCC(=O)O)cc2)c1 [Example 13, 3-{3′-[3-(4-benzyloxyphenyl)-1-methylureido]biphenyl-4-yl}propanoic acid]
0.5 | 0.002 |  | 0.5 | CCCCc1ccc(NC(=O)N(C)c2cccc(-c3ccc(CCC(=O)O)cc3)c2)cc1 [Example 14, 3-{3′-[3-(4-butylphenyl)-1-methylureido]biphenyl-4-yl}propanoic acid]
2 | 0.002 |  | 2 | CCCCCCCNC(=O)N(C)c1cccc(-c2ccc(CCC(=O)O)cc2OCCOC)c1 [Example 15, 3-[3′-(3-heptyl-1-methylureido)-2-(2-methoxyethoxy)biphenyl-4-yl]propanoic acid]
 | 0.001 |  | 0.5 | CCCCCCCNC(=O)N(C)c1cccc(-c2ccc(CCC(=O)O)cc2OCCCCl)c1 [Example 17, 3-[2-(3-chloropropoxy)-3′-(3-heptyl-1-methylureido)biphenyl-4-yl]propanoic acid]
0.25 | 0.004 |  | 2 | CCCCCCCNC(=O)N(C)c1cccc(-c2ccc(CCC(=O)O)cc2OC)c1 [Example 18, 3-[3′-(3-heptyl-1-methylureido)-2-methoxybiphenyl-4-yl]propanoic acid]
2 | 0.004 |  | 0.5 | CCCCCCCNC(=O)N(C)c1cccc(-c2ccc(/C=C/C(=O)O)cc2OCc2ccccc2)c1 [Example 24, (E)-3-[2-benzyloxy-3′-(3-heptyl-1-methylureido)biphenyl-4-yl]acrylic acid]
0.12 | 0.00025 |  | 0.5 | CCCCCCCNC(=O)N(C)c1cccc(-c2ccc(CCC(=O)O)cc2OCCC)c1 [Example 25, 3-[3′-(3-heptyl-1-methylureido)-2-propoxybiphenyl-4-yl]propanoic acid]
1 | 0.001 |  |  | CCCCCCCNC(=O)N(C)c1cccc(-c2ccc(CCC(=O)O)cc2OCC2CC2)c1 [Example 35, 3-[2-cyclopropylmethoxy-3′-(3-heptyl-1-methylureido)biphenyl-4-yl]propanoic acid]
2 | 0.002 |  | 0.25 | CCCCCCCNC(=O)N(C)c1cccc(-c2ccc(CCC(=O)O)cc2OCCC(F)(F)F)c1 [Example 37, 3-[3′-(3-heptyl-1-methylureido)-2-(3,3,3-trifluoropropoxy)biphenyl-4-yl]propanoic acid]
 | 0.001 |  | 4 | CCCCCCCNC(=O)N(C)c1cccc(-c2ccc(CCC(=O)O)cc2OCc2ccccc2)c1 [Example 42, 3-[2-benzyloxy-3′-(3-heptyl-1-methylureido)biphenyl-4-yl]propanoic acid]
 | 0.002 |  | 2 | CCCCCCCNC(=O)N(C)c1cccc(-c2ccc(CCC(=O)O)cc2OCc2cccc(F)c2)c1 [Example 43, 3-[2-(3-fluorobenzyloxy)-3′-(3-heptyl-1-methylureido)biphenyl-4-yl]propanoic acid]
 | 0.00025 |  | 0.12 | CCCCCCCNC(=O)N(C)c1cccc(-c2ccc(CCC(=O)O)cc2OCCCCC)c1 [Example 45, 3-[3′-(3-heptyl-1-methylureido)-2-pentyloxybiphenyl-4-yl]propanoic acid]
 | 0.00025 |  | 0.03 | CCCCCNC(=O)N(C)c1cccc(-c2ccc(CCC(=O)O)cc2OCCCCC)c1 [Example 46, 3-[3′-(1-methyl-3-pentylureido)-2-pentyloxybiphenyl-4-yl]propanoic acid]
 | 0.002 |  | 1 | CCCCCCCNC(=O)N(C)c1cccc(-c2ccc(CCC(=O)O)cc2OCCOCC)c1 [Example 47, 3-[2-(2-ethoxyethoxy)-3′-(3-heptyl-1-methylureido)biphenyl-4-yl]propanoic acid]
 | 0.002 |  | 2 | CCCCCNC(=O)N(C)c1cccc(-c2ccc(CCC(=O)O)cc2OCCOCC)c1 [Example 49, 3-[2-(2-ethoxyethoxy)-3′-(1-methyl-3-pentylureido)biphenyl-4-yl]propanoic acid]

Compound | Kd (PPARδ) [µM] | Kd (PPARγ) [µM] | melting point [°C] | Kd (PPARα) [µM]
CCCCOc1ccc(NC(=O)N(C)c2cccc(-c3ccc(CCC(=O)O)cc3)c2)cc1 [Example 33, 3-{3′-[3-(4-butoxyphenyl)-1-methylureido]biphenyl-4-yl}propanoic acid] | 1 | 0.004 |  | 
CCCCOc1ccc(NC(=O)N(CC)c2cccc(-c3ccc(CCC(=O)O)cc3)c2)cc1 [Example 34, 3-{3′-[3-(4-butoxyphenyl)-1-ethylureido]biphenyl-4-yl}propanoic acid] | 0.008 | 0.002 |  | 0.5
CCCCCCCNC(=O)N(C)c1cccc(-c2ccc(CCC(=O)O)cc2OCCCCO)c1 [Example 40, 3-[3′-(3-heptyl-1-methylureido)-2-(4-hydroxybutoxy)biphenyl-4-yl]propanoic acid] |  | 0.001 |  | 8
CCCCOc1cc(CCC(=O)O)ccc1-c1cccc(N(C)C(=O)Nc2ccccc2)c1 [Example 48, 3-[2-butoxy-3′-(1-methyl-3-phenylureido)biphenyl-4-yl]propanoic acid] |  | 0.002 |  | 2
